From patent publication US9763957B2, “Autotaxin inhibitors” (Novartis AG, priority 2013, dated 2017)

Target: Recombinant human ATX (Homo sapiens (Human), UniProt Q13822)
Experiment: ATX inhibition assay (choline release, Amplex Red fluorescence)
Type: biochemical
Details: ATX 10 nM, LPC 18:1 10 μM, 37° C., 20 min pre-incubation; mean of n≧2
How it was run: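 Activity was taken from the slope of resorufin fluorescence (530/590 nm, read every 2 min for 40 min at 37 °C) produced by choline liberated from 10 μM oleoyl LPC.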

Structure (SMILES)	IC50 [nM]
COC(=O)C1SCCN1C(=O)/C=C/c1ccc(Cl)cc1Cn1nnc(C)n1 (centres unmarked) [Example 49.27, (E)-Methyl 3-(3-(4-chloro-2-((5-methyl-2H-tetrazol-2-yl)methyl)phenyl)acryloyl)thiazolidine-2-carboxylate]	110
Cc1ncn(C2CCN(C(=O)/C=C/c3ccc(C(F)(F)F)cc3Cn3nnc(C)n3)CC2)n1 [Example 37, (E)-1-(4-(3-Methyl-1H-1,2,4-triazol-1-yl)piperidin-1-yl)-3-(2-((5-methyl-2H-tetrazol-2-yl)methyl)-4-(trifluoromethyl)phenyl)prop-2-en-1-one]	17
Cc1nnn(Cc2cc(C#N)ccc2/C=C/C(=O)N2CCC(Cc3nnc(C)o3)CC2)n1 [Example 82, (E)-4-(3-(4-((5-Methyl-1,3,4-oxadiazol-2-yl)methyl)piperidin-1-yl)-3-oxoprop-1-en-1-yl)-3-((5-methyl-2H-tetrazol-2-yl)methyl)benzonitrile]	785
Cc1nnn(Cc2cc(C(F)(F)F)ccc2/C=C/C(=O)N2CCCCC2C(F)(F)F)n1 (centres unmarked) [Example 124, (E)-3-(2-((5-Methyl-2H-tetrazol-2-yl)methyl)-4-(trifluoromethyl)phenyl)-1-(2-(trifluoromethyl)piperidin-1-yl)prop-2-en-1-one]	35
Cc1noc(C2CCCCN2C(=O)/C=C/c2ccc(C(F)(F)F)cc2Cn2nnc(C)n2)n1 (single isomer, unassigned) [Example 5a, (R,E)-1-(2-(3-methyl-1,2,4-oxadiazol-5-yl)piperidin-1-yl)-3-(2-((5-methyl-2H-tetrazol-2-yl)methyl)-4-(trifluoromethyl)phenyl)prop-2-en-1-one or (S,E)-1-(2-(3-methyl-1,2,4-oxadiazol-5-yl)piperidin-1-yl)-3-(2-((5-methyl-2H-tetrazol-2-yl)methyl)-4-(trifluoromethyl)phenyl)prop-2-en-1-one]	3.5
Cc1nnn(Cc2cc(Cl)ccc2/C=C/C(=O)N2CCC(Cn3cccn3)CC2)n1 [Example 49.11, (E)-1-(4-((1H-Pyrazol-1-yl)methyl)piperidin-1-yl)-3-(4-chloro-2-((5-methyl-2H-tetrazol-2-yl)methyl)phenyl)prop-2-en-1-one]	14
COC[C@@H]1CCCN1C(=O)/C=C/c1ccc(C(F)(F)F)cc1Cn1nnc(C)n1 [Example 111, (S,E)-1-(2-(Methoxymethyl)pyrrolidin-1-yl)-3-(2-((5-methyl-2H-tetrazol-2-yl)methyl)-4-(trifluoromethyl)phenyl)prop-2-en-1-one]	47
Cc1nnn(Cc2cc(OC(F)(F)F)ccc2/C=C/C(=O)N2CCC(Cc3nnc(C)o3)CC2)n1 [Example 56, (E)-1-(4-((5-Methyl-1,3,4-oxadiazol-2-yl)methyl)piperidin-1-yl)-3-(2-((5-methyl-2H-tetrazol-2-yl)methyl)-4-(trifluoromethoxy)phenyl)prop-2-en-1-one]	12
Cc1nnn(Cc2cc(Cl)ccc2/C=C/C(=O)N2CCC(O)(Cn3cc(C(F)(F)F)cn3)CC2)n1 [Example 18, (E)-3-(4-Chloro-2-((5-methyl-2H-tetrazol-2-yl)methyl)phenyl)-1-(4-hydroxy-4-((4-(trifluoromethyl)-1H-pyrazol-1-yl)methyl)piperidin-1-yl)prop-2-en-1-one]	37
COCC1CCN(C(=O)/C=C/c2ccc(C(F)(F)F)cc2Cn2nnc(C)n2)CC1 [Example 99, (E)-1-(4-(Methoxymethyl)piperidin-1-yl)-3-(2-((5-methyl-2H-tetrazol-2-yl)methyl)-4-(trifluoromethyl)phenyl)prop-2-en-1-one]	25
Cc1nnn(Cc2cc(Cl)ccc2/C=C/C(=O)N2CCC(O)(Cn3cc(C(=O)N4CCOCC4)cn3)CC2)n1 [Example 14, (E)-3-(4-Chloro-2-((5-methyl-2H-tetrazol-2-yl)methyl)phenyl)-1-(4-hydroxy-4-((4-(morpholine-4-carbonyl)-1H-pyrazol-1-yl)methyl)piperidin-1-yl)prop-2-en-1-one]	12
Cc1nnn(Cc2cc(C(F)(F)F)ccc2/C=C/C(=O)N2CCC(c3nnc(C4CCC4)o3)CC2)n1 [Example 103, (E)-1-(4-(5-Cyclobutyl-1,3,4-oxadiazol-2-yl)piperidin-1-yl)-3-(2-((5-methyl-2H-tetrazol-2-yl)methyl)-4-(trifluoromethyl)phenyl)prop-2-en-1-one]	5.3
Cc1nnn(Cc2cc(Cl)ccc2/C=C/C(=O)N2CCC(O)(Cn3cc(C(=O)N(C)C)cn3)CC2)n1 [Example 15, (E)-1-((1-(3-(4-Chloro-2-((5-methyl-2H-tetrazol-2-yl)methyl)phenyl)acryloyl)-4-hydroxypiperidin-4-yl)methyl)-N,N-dimethyl-1H-pyrazole-4-carboxamide]	62
COCC1CCCN(C(=O)/C=C/c2ccc(Cl)cc2Cn2nnc(C)n2)C1 (centres unmarked) [Example 49.17, (E)-3-(4-Chloro-2-((5-methyl-2H-tetrazol-2-yl)methyl)phenyl)-1-(3-(methoxymethyl)piperidin-1-yl)prop-2-en-1-one]	222
Cc1nnn(Cc2cc(C(F)(F)F)ccc2/C=C/C(=O)N2CCC(NC(=O)CCCCCc3cnn[nH]3)CC2)n1 [Example 156, (E)-N-(1-(3-(2-((5-Methyl-2H-tetrazol-2-yl)methyl)-4-(trifluoromethyl)phenyl)acryloyl)piperidin-4-yl)-6-(1H-1,2,3-triazol-5-yl)hexanamide]	5.3
Cc1noc(CN2CCN(C(=O)/C=C/c3ccc(C(F)(F)F)cc3Cn3nnc(C)n3)CC2)n1 [Example 88, (E)-1-(4-((3-Methyl-1,2,4-oxadiazol-5-yl)methyl)piperazin-1-yl)-3-(2-((5-methyl-2H-tetrazol-2-yl)methyl)-4-(trifluoromethyl)phenyl)prop-2-en-1-one]	16
Cc1cnc(Cc2cc(Cl)ccc2/C=C/C(=O)N2CCC(Cc3nnc(C)o3)CC2)o1 [Example 45, (E)-3-(4-Chloro-2-((5-methyloxazol-2-yl)methyl)phenyl)-1-(4-((5-methyl-1,3,4-oxadiazol-2-yl)methyl)piperidin-1-yl)prop-2-en-1-one]	644
Cc1noc(Cc2cc(Cl)ccc2/C=C/C(=O)N2CCC(Cc3nnc(C)o3)CC2)n1 [Example 21, (E)-3-(4-Chloro-2-((3-methyl-1,2,4-oxadiazol-5-yl)methyl)phenyl)-1-(4-((5-methyl-1,3,4-oxadiazol-2-yl)methyl)piperidin-1-yl)prop-2-en-1-one]	208
Cc1nnn(Cc2cc(Cl)ccc2/C=C/C(=O)N2CCN(c3ncccc3C(=O)N3CCCC3)CC2)n1 [Example 49.29, (E)-3-(4-Chloro-2-((5-methyl-2H-tetrazol-2-yl)methyl)phenyl)-1-(4-(3-(pyrrolidine-1-carbonyl)pyridin-2-yl)piperazin-1-yl)prop-2-en-1-one]	78
Cc1nnn(Cc2cc(Cl)ccc2/C=C/C(=O)N2CC[C@@H](c3nnc(C)o3)C2)n1 [Example 7, (R,E)-3-(4-Chloro-2-((5-methyl-2H-tetrazol-2-yl)methyl)phenyl)-1-(3-(5-methyl-1,3,4-oxadiazol-2-yl)pyrrolidin-1-yl)prop-2-en-1-one]	140
Cc1nnn(Cc2cc(C(F)(F)F)ccc2/C=C/C(=O)N2CCC(N3CCCCC3=O)CC2)n1 [Example 97, (E)-1′-(3-(2-((5-Methyl-2H-tetrazol-2-yl)methyl)-4-(trifluoromethyl)phenyl)acryloyl)-[1,4′-bipiperidin]-2-one]	23
Cc1nnn(Cc2cc(Cl)ccc2/C=C/C(=O)N2CCC(CCCc3nnc(C)o3)CC2)n1 [Example 26, (E)-3-(4-Chloro-2-((5-methyl-2H-tetrazol-2-yl)methyl)phenyl)-1-(4-(3-(5-methyl-1,3,4-oxadiazol-2-yl)propyl)piperidin-1-yl)prop-2-en-1-one]	31
CNC(=O)[C@@H]1CC(F)(F)CN1C(=O)/C=C/c1ccc(C(F)(F)F)cc1Cn1nnc(C)n1 [Example 91, (S,E)-4,4-Difluoro-N-methyl-1-(3-(2-((5-methyl-2H-tetrazol-2-yl)methyl)-4-(trifluoromethyl)phenyl)acryloyl)pyrrolidine-2-carboxamide]	160
Cc1noc(Cc2cc(Cl)ccc2/C=C/C(=O)N2CCN(Cc3coc(C)n3)CC2)n1 [Example 76, (E)-3-(4-Chloro-2-((3-methyl-1,2,4-oxadiazol-5-yl)methyl)phenyl)-1-(4-((2-methyloxazol-4-yl)methyl)piperazin-1-yl)prop-2-en-1-one]	73
Cc1nnn(Cc2cc(Cl)ccc2/C=C/C(=O)N2CCCC(C(N)=O)C2)n1 (centres unmarked) [Example 49.8, (E)-1-(3-(4-Chloro-2-((5-methyl-2H-tetrazol-2-yl)methyl)phenyl)acryloyl)piperidine-3-carboxamide]	354
C[C@@H]1CN(Cc2ccc(F)cc2)CCN1C(=O)/C=C/c1ccc(Cl)cc1Cc1nnn(C)n1 [Example 143, (R,E)-3-(4-Chloro-2-((2-methyl-2H-tetrazol-5-yl)methyl)phenyl)-1-(4-(4-fluorobenzyl)-2-methylpiperazin-1-yl)prop-2-en-1-one]	31
Cc1nnn(Cc2cc(Cl)ccc2/C=C/C(=O)N2CCCCC2c2nc(C(C)C)no2)n1 (single isomer, unassigned) [Example 30a, (R or S, E)-3-(4-Chloro-2-((5-methyl-2H-tetrazol-2-yl)methyl)phenyl)-1-(2-(3-isopropyl-1,2,4-oxadiazol-5-yl)piperidin-1-yl)prop-2-en-1-one]	4.9
Cc1nnn(Cc2cc(Cl)ccc2/C=C/C(=O)N2CCC(C(O)c3ccc(Cl)cc3)CC2)n1 (single isomer, unassigned) [Example 66a, ((R or S), E)-3-(4-Chloro-2-((5-methyl-2H-tetrazol-2-yl)methyl)phenyl)-1-(4-((4-chlorophenyl)(hydroxy)methyl)piperidin-1-yl)prop-2-en-1-one]	4.2
COc1ccc(/C=C/C(=O)N2CCC(Cc3nnc(C)o3)CC2)c(Cn2nnc(C)n2)c1 [Example 83, (E)-3-(4-Methoxy-2-((5-methyl-2H-tetrazol-2-yl)methyl)phenyl)-1-(4-((5-methyl-1,3,4-oxadiazol-2-yl)methyl)piperidin-1-yl)prop-2-en-1-one]	846
